Assay results from ChEMBL document CHEMBL6109162, “Discovery of Highly Potent BET Inhibitors based on a Tractable Tricyclic Scaffold” (ACS Med Chem Lett, 2025).
pIC50: −log10 of the molar value.

How the values were obtained:
[1] = molecular target: T1, Bromodomain-containing protein 4 (Homo sapiens, UniProt O60885); assay: Inhibition of BRD4 BD1 (unknown origin) by FRET assay
[2] = molecular target: T1, Bromodomain-containing protein 4; assay: Inhibition of BRD4 (unknown origin) by FRET assay

Cc1nnn(C)c1-c1cnc2c3ccc(C(C)(C)O)cc3n([C@@H](c3ccccc3)C3CCOCC3)c2c1
pIC50 [1]: 8.54

CCS(=O)(=O)Nc1ccc(Oc2ccc(F)cc2F)c(-c2cn(C)c(=O)c3[nH]ccc23)c1 [MIVEBRESIB]
pIC50 [2]: 8.82
